Measurements taken from PubChem BioAssay (NCI).
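Test compounds were applied to cells in 96-well plates for 48 hours at 5 doses. Abbreviation: GI50, concentration required for 50% inhibition of growth. Definition used: TGI = concentration required for complete inhibition of growth.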

Key:
Experiment in all cases: NCI anticancer screen, dose series, 48 h
DU-145 prostate = tested on: DU-145 prostate
MDA-MB-435 = tested on: MDA-MB-435
BT-549 breast = tested on: BT-549 breast
HCT-15 colon = tested on: HCT-15 colon
CAKI-1 renal = tested on: CAKI-1 renal
HOP-92 NSCLC = tested on: HOP-92 NSCLC
ACHN renal = tested on: ACHN renal
M14 melanoma = tested on: M14 melanoma
OVCAR-3 ovarian = tested on: OVCAR-3 ovarian
UACC-62 melanoma = tested on: UACC-62 melanoma
NCI-H460 lung = tested on: NCI-H460 lung
NCI-H226 lung = tested on: NCI-H226 lung
MDA-MB-231 breast = tested on: MDA-MB-231 breast
HCT-116 colon = tested on: HCT-116 colon
LOX IMVI melanoma = tested on: LOX IMVI melanoma
A498 renal = tested on: A498 renal
SF-268 CNS = tested on: SF-268 CNS
MDA-MB-468 breast = tested on: MDA-MB-468 breast
SF-539 CNS = tested on: SF-539 CNS
RPMI-8226 leukemia = tested on: RPMI-8226 leukemia
U251 CNS = tested on: U251 CNS
HCC-2998 colon = tested on: HCC-2998 colon
786-0 renal = tested on: 786-0 renal
SK-MEL-28 melanoma = tested on: SK-MEL-28 melanoma
TK-10 renal = tested on: TK-10 renal
CCRF-CEM leukemia = tested on: CCRF-CEM leukemia
MALME-3M melanoma = tested on: MALME-3M melanoma
OVCAR-5 ovarian = tested on: OVCAR-5 ovarian
SW-620 colon = tested on: SW-620 colon
MOLT-4 leukemia = tested on: MOLT-4 leukemia
HL-60(TB) leukemia = tested on: HL-60(TB) leukemia
RXF 393 renal = tested on: RXF 393 renal
SK-MEL-2 melanoma = tested on: SK-MEL-2 melanoma
HS 578T breast = tested on: HS 578T breast
OVCAR-4 ovarian = tested on: OVCAR-4 ovarian
PC-3 prostate = tested on: PC-3 prostate
SK-OV-3 ovarian = tested on: SK-OV-3 ovarian
NCI/ADR-RES ovarian = tested on: NCI/ADR-RES ovarian
UO-31 renal = tested on: UO-31 renal
SNB-75 CNS = tested on: SNB-75 CNS
EKVX NSCLC = tested on: EKVX NSCLC
SF-295 CNS = tested on: SF-295 CNS
KM12 colon = tested on: KM12 colon
HOP-62 NSCLC = tested on: HOP-62 NSCLC
SR leukemia = tested on: SR leukemia
MCF7 breast = tested on: MCF7 breast
A549 NSCLC = tested on: A549 NSCLC
K-562 leukemia = tested on: K-562 leukemia
SN12C renal = tested on: SN12C renal
NCI-H522 lung = tested on: NCI-H522 lung
T-47D breast = tested on: T-47D breast
UACC-257 melanoma = tested on: UACC-257 melanoma
IGROV1 ovarian = tested on: IGROV1 ovarian
OVCAR-8 ovarian = tested on: OVCAR-8 ovarian
NCI-H23 lung = tested on: NCI-H23 lung
SNB-19 CNS = tested on: SNB-19 CNS

COc1ccc(N(C)c2cc(C#N)nc3ccccc23)cc1/C=C/C(=O)NO
GI50 (DU-145 prostate): < 0.01 µM | TGI (DU-145 prostate): 16.8 µM | GI50 (MDA-MB-435): < 0.01 µM | TGI (MDA-MB-435): < 0.01 µM | GI50 (BT-549 breast): < 0.01 µM | TGI (BT-549 breast): 1.91 µM | GI50 (HCT-15 colon): < 0.01 µM | TGI (HCT-15 colon): 19.7 µM | GI50 (CAKI-1 renal): < 0.01 µM | TGI (CAKI-1 renal): 6.22 µM | TGI (HOP-92 NSCLC): 9.06 µM | GI50 (ACHN renal): < 0.01 µM | TGI (ACHN renal): 11.7 µM | GI50 (M14 melanoma): < 0.01 µM | TGI (M14 melanoma): 1.86 µM | GI50 (OVCAR-3 ovarian): < 0.01 µM | TGI (OVCAR-3 ovarian): 6.18 µM | GI50 (UACC-62 melanoma): < 0.01 µM | TGI (UACC-62 melanoma): 2.1 µM | GI50 (NCI-H460 lung): < 0.01 µM | TGI (NCI-H460 lung): 3.65 µM | GI50 (NCI-H226 lung): < 0.01 µM | TGI (NCI-H226 lung): 5.82 µM | GI50 (MDA-MB-231 breast): < 0.01 µM | TGI (MDA-MB-231 breast): < 0.01 µM | GI50 (HCT-116 colon): < 0.01 µM | TGI (HCT-116 colon): 1.39 µM | GI50 (LOX IMVI melanoma): < 0.01 µM | TGI (LOX IMVI melanoma): 1.4 µM | GI50 (A498 renal): 15.7 µM | TGI (A498 renal): 54.2 µM | GI50 (SF-268 CNS): < 0.01 µM | TGI (SF-268 CNS): 14.2 µM | GI50 (MDA-MB-468 breast): < 0.01 µM | TGI (MDA-MB-468 breast): < 0.01 µM | GI50 (SF-539 CNS): < 0.01 µM | TGI (SF-539 CNS): < 0.01 µM | GI50 (RPMI-8226 leukemia): < 0.01 µM | TGI (RPMI-8226 leukemia): 19.2 µM | GI50 (U251 CNS): < 0.01 µM | TGI (U251 CNS): 9.38 µM | GI50 (HCC-2998 colon): < 0.01 µM | TGI (HCC-2998 colon): < 0.01 µM | GI50 (786-0 renal): < 0.01 µM | TGI (786-0 renal): 15 µM | GI50 (SK-MEL-28 melanoma): 0.551 µM | TGI (SK-MEL-28 melanoma): 3.72 µM | GI50 (TK-10 renal): 2.22 µM | TGI (TK-10 renal): 57.1 µM | GI50 (CCRF-CEM leukemia): < 0.01 µM | GI50 (MALME-3M melanoma): < 0.01 µM | TGI (MALME-3M melanoma): 8.74 µM | GI50 (OVCAR-5 ovarian): < 0.01 µM | TGI (OVCAR-5 ovarian): 10.7 µM | GI50 (SW-620 colon): < 0.01 µM | TGI (SW-620 colon): 15.2 µM | GI50 (MOLT-4 leukemia): < 0.01 µM | TGI (MOLT-4 leukemia): > 35.9 µM | GI50 (HL-60(TB) leukemia): < 0.01 µM | TGI (HL-60(TB) leukemia): < 0.01 µM | GI50 (RXF 393 renal): < 0.0435 µM | TGI (RXF 393 renal): 3.83 µM | GI50 (SK-MEL-2 melanoma): < 0.01 µM | TGI (SK-MEL-2 melanoma): 0.63 µM | GI50 (HS 578T breast): < 0.01 µM | TGI (HS 578T breast): 9.65 µM | GI50 (OVCAR-4 ovarian): 1.19 µM | TGI (OVCAR-4 ovarian): 16.9 µM | GI50 (PC-3 prostate): < 0.01 µM | TGI (PC-3 prostate): > 40.8 µM | GI50 (SK-OV-3 ovarian): < 0.01 µM | TGI (SK-OV-3 ovarian): 12.4 µM | GI50 (NCI/ADR-RES ovarian): < 0.01 µM | TGI (NCI/ADR-RES ovarian): < 0.01 µM | GI50 (UO-31 renal): < 0.01 µM | TGI (UO-31 renal): 12.1 µM | GI50 (SNB-75 CNS): < 0.01 µM | TGI (SNB-75 CNS): 2.62 µM | GI50 (EKVX NSCLC): < 0.01 µM | TGI (EKVX NSCLC): 13.5 µM | GI50 (SF-295 CNS): < 0.01 µM | GI50 (KM12 colon): < 0.01 µM | TGI (KM12 colon): 1.22 µM | GI50 (HOP-62 NSCLC): < 0.01 µM | TGI (HOP-62 NSCLC): 15.3 µM | GI50 (SR leukemia): < 0.01 µM | GI50 (MCF7 breast): < 0.01 µM | TGI (MCF7 breast): 17.4 µM | GI50 (A549 NSCLC): < 0.01 µM | TGI (A549 NSCLC): 22.4 µM | GI50 (K-562 leukemia): < 0.01 µM | TGI (K-562 leukemia): > 40.3 µM | GI50 (SN12C renal): < 0.01 µM | TGI (SN12C renal): 5.95 µM | GI50 (NCI-H522 lung): < 0.01 µM | TGI (NCI-H522 lung): < 0.01 µM | GI50 (T-47D breast): 2.34 µM | TGI (T-47D breast): 80.1 µM | GI50 (UACC-257 melanoma): 1.68 µM | TGI (UACC-257 melanoma): 20.3 µM | GI50 (IGROV1 ovarian): < 0.01 µM | TGI (IGROV1 ovarian): 4.55 µM | GI50 (OVCAR-8 ovarian): < 0.01 µM | GI50 (NCI-H23 lung): < 0.01 µM | TGI (NCI-H23 lung): 1.25 µM | GI50 (SNB-19 CNS): < 0.01 µM | TGI (SNB-19 CNS): 15.1 µM
